Columns and labels:
Uncinula necator = assay: Action against Uncinula necator on vines; format: in vivo; conditions: vine cuttings sprayed with 200 ppm a.i., infected 24 hours later, evaluation ca. 14 days after infection
Experimental: Example B-3: Action Against Uncinula necator on Vines
5 week old vine cuttings are sprayed with a spray mixture (200 ppm a.i.) prepared from a wettable powder formulation of the test compound. The plants are infected 24 hours later by conidias from strongly infested vine leafs that are shaken off over the test plants. The plants are then incubated at 26° C. and 60% relative humidity. The evaluation of the fungal infestation is made ca. 14 days after infection.

SMILES | control activity (Uncinula necator) | melting point [°C]
CCCCn1c(OCCC)nc2sc(Br)cc2c1=S [Compound 4, 6-bromo-3-butyl-2-propoxy-4-thioxo-thieno[2,3-d]pyrimidine] | complete control activity | 95 to 97
CCCOc1nc2sc(Br)cc2c(=S)n1CCC [Compound 2, 6-bromo-2-propoxy-3-propyl-4-thioxo-thieno[2,3-d]pyrimidine] | complete control activity | 110 to 112
CCCOc1nc2sc(Cl)cc2c(=S)n1CCC [Compound 1, 6-Chloro-2-propoxy-3-propyl-4-thioxo-thieno[2,3-d]pyrimidine] | complete control activity | –
CCCCn1c(OCCC)nc2sc(Cl)cc2c1=S [Compound 3, 3-butyl-6-chloro-2-propoxy-4-thioxo-thieno[2,3-d]pyrimidine] | complete control activity | 68 to 70

Source: patent US6384040B1, “Condensed 4-thioxopyrimidine derivatives as microbicides” (Syngenta Crop Protection, Inc., priority 1998, dated 2002)
